In the supplement of paper PMC10702517:
± gives the standard deviation.

Key:
[1] = chemical recovery from spiked human plasma; higher = better extraction; conditions: pooled human plasma
[2] = chemical recovery into PDMS from spiked human plasma; higher = better extraction; conditions: pooled human plasma, extraction method: PES with PDMS
[3] = chemical recovery by SPE of plasma after PDMS sampling; higher = better extraction; conditions: pooled human plasma, extraction method: HLB SPE of plasma after PES
[4] = extraction method: PES+SPE (3 d PDMS equilibration then HLB SPE)
[5] = extraction method: SPE only (HLB 96-well)
[6] = extraction method: SPE only (HLB 96-well), PES comparison experiment
[7] = extraction method: solvent precipitation (ACN + hexane)
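Throughout, for chemical recovery by SPE of plasma after PDMS sampling: over 400 spiked chemicals quantified by LC-HRMS or GC-HRMS via internal standard calibration, recovery relative to spike mix added to unspiked plasma extract to correct matrix effects.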

Compound	chemical recovery [1, 4] [%]	chemical recovery [1, 5] [%]	chemical recovery [1, 6] [%]	chemical recovery [1, 7] [%]	chemical recovery into PDMS ([2]; equilibration time (d): 1) [%]	chemical recovery into PDMS ([2]; equilibration time (d): 3) [%]	chemical recovery into PDMS ([2]; equilibration time (d): 6) [%]	chemical recovery by SPE of plasma ([3]; equilibration time (d): 1) [%]	chemical recovery by SPE of plasma ([3]; equilibration time (d): 3) [%]	chemical recovery by SPE of plasma ([3]; equilibration time (d): 6) [%]
Fc1ccc([C@@H]2CCNC[C@H]2COc2ccc3c(c2)OCO3)cc1 [Paroxetine]	3.9 ± 1.1	63.1 ± 3.8	42.8 ± 9.2	61.7 ± 1.7	0.404 ± 0.21	0.313 ± 0.1	0.637 ± 0.5	2.65 ± 0.22	3.11 ± 0.29	2.27 ± 0.16
Cc1ccc2[nH]nnc2c1 [5-Methyl-1H-benzotriazole]	54.6 ± 2.9	46.3 ± 3	51.7 ± 8.2	58.1 ± 3.9	3.14 ± 0.15	6.47 ± 1.2	8.16 ± 2	45.5 ± 4.2	42.2 ± 5.6	36 ± 2.7
C[C@]12CC(=O)[C@H]3[C@@H](CCC4=CC(=O)CC[C@@]43C)[C@@H]1CC[C@@H]2O [11-Ketotestosterone]			50.5 ± 4.8		4.7 ± 9.7			34.3 ± 3.9	30.6 ± 2.7	21.9 ± 3.6
CC(C)NCC(O)COc1ccc(COCCOC(C)C)cc1 (stereo unspecified) [Bisoprolol]	26.7 ± 3.1	42.2 ± 4	47.4 ± 6.3	70.7 ± 1.7	0.0185 ± 0.032			32.2 ± 3.3	34.4 ± 3.7	31.1 ± 2.7
CCOC(=O)CC(O)(CC(=O)OCC)C(=O)OCC [Triethylcitrate]	32.4 ± 8.6	38.1 ± 0.71	43.2 ± 5		23.6 ± 0.89	23.1 ± 3.8	26.2 ± 2.7	18.1 ± 0.54	26.1 ± 4.4	17 ± 1.2
CCNc1nc(Cl)nc(NCC)n1 [Simazine]	47.8 ± 5.9	43.4 ± 2.3	48.6 ± 5.5	60.6 ± 5.9	30.5 ± 1.1	35.8 ± 1.3	38.6 ± 2.5	9.65 ± 1.2	7.56 ± 1.3	4.81 ± 0.55
CCCc1nc2c(C)cc(-c3nc4ccccc4n3C)cc2n1Cc1ccc(-c2ccccc2C(=O)O)cc1 [Telmisartan]	55.8 ± 1.8	50.8 ± 2.5	45.4 ± 5.1		0.144 ± 0.041	0.817 ± 0.34	1.28 ± 0.6	43.6 ± 3.4	46.2 ± 1	43.5 ± 2.1
O=S(=O)(O)NC1CCCCC1 [Cyclamate]	5.77 ± 0.89	7.88 ± 2.3		71.8 ± 4.1		0.0113 ± 0.022	0.00679 ± 0.0059	7.95 ± 6.1	5.41 ± 0.92	8.35 ± 3.4
N#Cc1nn(-c2c(Cl)cc(C(F)(F)F)cc2Cl)c(N)c1SC(F)(F)F [Fipronil sulfide]		30.6 ± 3.4	64 ± 7	49.8 ± 3.9	22.6 ± 0.34	25.1 ± 1.1	24.4 ± 0.83	21.2 ± 6.2	19.9 ± 0.92	15.3 ± 3
N#Cc1cc(Br)c(O)c(Br)c1 [Bromoxynil]	51 ± 4.9	43.9 ± 2.5	59.5 ± 6.2	68.2 ± 6.9		0.00783 ± 0.014		58.5 ± 9.5	62.9 ± 3.1	58.6 ± 2.6
C/C(=N\C#N)N(C)Cc1ccc(Cl)nc1 [Acetamiprid]	51.9 ± 4.8	40.7 ± 3	56.8 ± 6.8	75 ± 2.6	9.86 ± 0.62	15.7 ± 2.8	17.2 ± 2.9	46.9 ± 3.9	42.3 ± 4.8	33.6 ± 4
C[Si](Cn1cncn1)(c1ccc(F)cc1)c1ccc(F)cc1 [Flusilazole]	45.1 ± 4.8	39.4 ± 2.9	48 ± 7.1	70.1 ± 5.4	41.3 ± 2.2	45.7 ± 3.8	43.1 ± 5.8	0.32 ± 0.12	0.383 ± 0.15	0.136 ± 0.0093
